The target of assay [1] is Proto-oncogene tyrosine-protein kinase Src (Homo sapiens, UniProt P12931).
Assay [2] has as its target Tyrosine-protein kinase Lyn (Homo sapiens, UniProt P07948). Briefly: Inhibition of Lyn.
Assay [3] has as its target Tyrosine-protein kinase Fyn (Homo sapiens, UniProt P06241). Briefly: Inhibition of Fyn.
The target of assay [4] is Tyrosine-protein kinase Blk (Homo sapiens, UniProt P51451). In words: Inhibition of Blk.
In a further assay the target is Angiopoietin-1 receptor (Homo sapiens, UniProt Q02763). Briefly: Inhibition of Tie2.
Chain of Angiopoietin-1 receptor (Q02763 whole entry): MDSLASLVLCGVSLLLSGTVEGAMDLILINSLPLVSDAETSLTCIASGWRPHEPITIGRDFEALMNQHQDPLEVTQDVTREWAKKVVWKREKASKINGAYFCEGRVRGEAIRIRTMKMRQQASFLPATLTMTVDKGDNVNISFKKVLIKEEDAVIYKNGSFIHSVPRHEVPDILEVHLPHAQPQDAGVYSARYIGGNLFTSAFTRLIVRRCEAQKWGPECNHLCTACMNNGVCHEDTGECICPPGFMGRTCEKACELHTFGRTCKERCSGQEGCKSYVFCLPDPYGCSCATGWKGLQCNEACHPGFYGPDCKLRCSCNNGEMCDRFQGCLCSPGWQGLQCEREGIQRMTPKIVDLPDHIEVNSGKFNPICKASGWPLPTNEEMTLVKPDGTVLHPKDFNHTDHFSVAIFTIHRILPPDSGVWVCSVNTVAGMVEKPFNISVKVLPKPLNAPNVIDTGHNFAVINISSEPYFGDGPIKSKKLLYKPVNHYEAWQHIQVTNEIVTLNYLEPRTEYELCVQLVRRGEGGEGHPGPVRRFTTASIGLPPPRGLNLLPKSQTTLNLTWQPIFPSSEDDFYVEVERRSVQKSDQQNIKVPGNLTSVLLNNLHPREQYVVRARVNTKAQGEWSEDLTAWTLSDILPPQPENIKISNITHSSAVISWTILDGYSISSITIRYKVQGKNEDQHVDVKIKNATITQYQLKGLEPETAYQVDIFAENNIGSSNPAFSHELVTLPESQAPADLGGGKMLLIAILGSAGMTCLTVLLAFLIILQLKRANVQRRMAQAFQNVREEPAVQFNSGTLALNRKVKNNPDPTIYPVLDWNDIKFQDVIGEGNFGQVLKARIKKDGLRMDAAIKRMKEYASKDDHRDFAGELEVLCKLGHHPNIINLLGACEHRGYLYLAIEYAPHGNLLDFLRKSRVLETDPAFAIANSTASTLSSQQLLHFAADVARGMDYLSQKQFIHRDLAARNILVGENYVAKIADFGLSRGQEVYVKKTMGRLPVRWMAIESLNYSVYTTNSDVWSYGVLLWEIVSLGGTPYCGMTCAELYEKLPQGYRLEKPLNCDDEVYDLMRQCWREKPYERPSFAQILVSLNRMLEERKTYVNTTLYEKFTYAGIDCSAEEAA
For assay [5], the target named is Vascular endothelial growth factor receptor 2 (Homo sapiens, UniProt P35968). In words: Inhibition of VEGFR2.
The target in assay [6] is Serine/threonine-protein kinase RAF and Dual specificity mitogen-activated protein kinase kinase 1 (Raf/MEK) (Homo sapiens, UniProt P04049+Q02750). Briefly: Inhibition of Raf1-MEK1. Type of assay: protein assay.
Assay [7] has as its target Tyrosine-protein kinase ABL1 (Homo sapiens, UniProt P00519). Briefly: Inhibition of Abl.
Assay [8] has as its target Tyrosine-protein kinase ABL1 (Homo sapiens, UniProt P00519, T315I). In words: Inhibition of Abl T315I mutant.
The target in assay [9] is RAF proto-oncogene serine/threonine-protein kinase (Homo sapiens, UniProt P04049). Briefly: Inhibition of Raf1 kinase.
Chain of RAF proto-oncogene serine/threonine-protein kinase (P04049 whole entry): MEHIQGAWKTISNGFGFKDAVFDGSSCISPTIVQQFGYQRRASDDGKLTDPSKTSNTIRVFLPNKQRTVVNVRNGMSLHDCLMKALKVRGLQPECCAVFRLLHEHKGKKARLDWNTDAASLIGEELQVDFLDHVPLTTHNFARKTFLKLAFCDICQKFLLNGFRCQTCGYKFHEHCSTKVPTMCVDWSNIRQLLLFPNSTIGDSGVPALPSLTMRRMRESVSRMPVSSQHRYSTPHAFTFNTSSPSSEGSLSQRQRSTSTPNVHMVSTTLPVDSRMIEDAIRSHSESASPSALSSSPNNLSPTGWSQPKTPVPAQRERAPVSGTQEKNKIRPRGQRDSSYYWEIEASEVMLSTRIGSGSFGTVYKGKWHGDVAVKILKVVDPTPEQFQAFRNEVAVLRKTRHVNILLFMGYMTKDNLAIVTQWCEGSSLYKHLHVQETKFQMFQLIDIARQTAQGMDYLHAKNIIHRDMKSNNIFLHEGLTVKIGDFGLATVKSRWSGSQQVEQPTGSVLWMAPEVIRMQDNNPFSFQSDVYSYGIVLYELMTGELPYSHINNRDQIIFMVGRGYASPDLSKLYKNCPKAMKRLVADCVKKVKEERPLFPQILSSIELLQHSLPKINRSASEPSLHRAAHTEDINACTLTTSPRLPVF
For assay [10], the target named is Tyrosine-protein kinase CSK (Homo sapiens, UniProt P41240). In words: Inhibition of CSK.
Chain of Tyrosine-protein kinase CSK (P41240 whole entry): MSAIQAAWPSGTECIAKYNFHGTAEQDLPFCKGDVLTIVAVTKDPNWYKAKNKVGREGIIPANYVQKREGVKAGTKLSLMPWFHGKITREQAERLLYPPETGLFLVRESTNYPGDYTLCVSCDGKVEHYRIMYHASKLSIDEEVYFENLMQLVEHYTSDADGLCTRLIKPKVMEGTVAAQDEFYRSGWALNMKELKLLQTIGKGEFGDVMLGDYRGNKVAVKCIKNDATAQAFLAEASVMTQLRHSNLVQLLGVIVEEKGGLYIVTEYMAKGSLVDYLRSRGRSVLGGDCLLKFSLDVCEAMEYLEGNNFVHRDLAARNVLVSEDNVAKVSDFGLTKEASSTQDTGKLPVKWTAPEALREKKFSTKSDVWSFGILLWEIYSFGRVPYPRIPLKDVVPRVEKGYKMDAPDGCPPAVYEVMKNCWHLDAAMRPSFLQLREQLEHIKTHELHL
The target of assay [11] is Ribosomal protein S6 kinase beta-1 (Homo sapiens, UniProt P23443). Briefly: Inhibition of p70S6K.
Chain of Ribosomal protein S6 kinase beta-1 (P23443 whole entry): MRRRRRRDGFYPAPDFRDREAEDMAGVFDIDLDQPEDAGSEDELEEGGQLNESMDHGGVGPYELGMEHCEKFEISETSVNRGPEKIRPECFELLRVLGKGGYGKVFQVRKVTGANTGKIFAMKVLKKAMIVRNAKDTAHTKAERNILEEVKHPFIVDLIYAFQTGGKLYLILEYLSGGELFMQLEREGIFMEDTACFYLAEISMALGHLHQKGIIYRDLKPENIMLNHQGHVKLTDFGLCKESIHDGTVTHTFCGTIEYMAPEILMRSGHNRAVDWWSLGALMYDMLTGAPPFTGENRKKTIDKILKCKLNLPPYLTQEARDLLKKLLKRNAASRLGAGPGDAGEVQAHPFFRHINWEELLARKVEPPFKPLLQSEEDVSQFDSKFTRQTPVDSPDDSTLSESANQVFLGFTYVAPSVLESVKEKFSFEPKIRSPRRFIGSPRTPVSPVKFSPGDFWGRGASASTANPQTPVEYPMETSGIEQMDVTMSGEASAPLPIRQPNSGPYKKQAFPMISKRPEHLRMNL

Chain of Proto-oncogene tyrosine-protein kinase Src (P12931 2-536 limits assumed): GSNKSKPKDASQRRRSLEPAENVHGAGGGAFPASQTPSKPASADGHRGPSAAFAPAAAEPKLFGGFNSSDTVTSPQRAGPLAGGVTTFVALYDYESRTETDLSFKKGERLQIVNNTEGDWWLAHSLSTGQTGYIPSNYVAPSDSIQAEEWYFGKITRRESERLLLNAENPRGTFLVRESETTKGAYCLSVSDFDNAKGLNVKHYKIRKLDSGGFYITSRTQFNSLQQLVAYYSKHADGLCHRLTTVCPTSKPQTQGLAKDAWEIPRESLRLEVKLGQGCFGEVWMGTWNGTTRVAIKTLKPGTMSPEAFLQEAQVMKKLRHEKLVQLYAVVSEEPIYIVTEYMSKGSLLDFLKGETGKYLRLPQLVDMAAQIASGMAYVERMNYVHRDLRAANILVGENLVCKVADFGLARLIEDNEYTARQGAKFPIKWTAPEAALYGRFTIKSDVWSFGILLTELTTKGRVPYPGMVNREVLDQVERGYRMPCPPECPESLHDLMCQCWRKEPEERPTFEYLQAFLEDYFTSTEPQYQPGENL
Chain of Tyrosine-protein kinase Fyn (P06241 whole entry): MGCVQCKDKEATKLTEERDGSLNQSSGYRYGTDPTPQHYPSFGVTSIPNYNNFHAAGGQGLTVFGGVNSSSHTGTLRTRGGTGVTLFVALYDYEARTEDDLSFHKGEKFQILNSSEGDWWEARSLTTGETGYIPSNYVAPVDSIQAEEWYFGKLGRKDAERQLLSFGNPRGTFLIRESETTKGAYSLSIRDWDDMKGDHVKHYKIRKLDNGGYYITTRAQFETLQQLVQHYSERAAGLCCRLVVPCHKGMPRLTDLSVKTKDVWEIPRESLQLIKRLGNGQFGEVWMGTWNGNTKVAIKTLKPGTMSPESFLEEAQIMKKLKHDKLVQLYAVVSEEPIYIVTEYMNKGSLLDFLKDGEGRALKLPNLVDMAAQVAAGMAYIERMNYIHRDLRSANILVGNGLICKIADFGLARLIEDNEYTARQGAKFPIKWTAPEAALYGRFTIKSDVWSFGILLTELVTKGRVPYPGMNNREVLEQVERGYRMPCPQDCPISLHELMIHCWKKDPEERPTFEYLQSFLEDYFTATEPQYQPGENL
Chain of Tyrosine-protein kinase Blk (P51451 whole entry): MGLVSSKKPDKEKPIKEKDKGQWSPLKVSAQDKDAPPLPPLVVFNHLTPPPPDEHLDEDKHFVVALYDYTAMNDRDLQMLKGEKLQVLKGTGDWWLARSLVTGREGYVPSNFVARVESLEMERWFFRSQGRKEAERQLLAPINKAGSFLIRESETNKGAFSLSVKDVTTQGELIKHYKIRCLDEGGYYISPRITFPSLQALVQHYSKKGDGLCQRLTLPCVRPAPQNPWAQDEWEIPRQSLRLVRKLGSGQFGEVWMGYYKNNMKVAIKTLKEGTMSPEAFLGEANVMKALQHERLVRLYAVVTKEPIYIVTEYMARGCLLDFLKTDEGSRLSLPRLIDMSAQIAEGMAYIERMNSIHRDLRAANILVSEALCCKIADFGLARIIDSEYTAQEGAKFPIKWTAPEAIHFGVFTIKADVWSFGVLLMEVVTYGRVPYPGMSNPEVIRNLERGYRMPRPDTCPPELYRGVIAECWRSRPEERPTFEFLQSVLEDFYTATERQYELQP
Chain of Tyrosine-protein kinase Lyn (P07948 whole entry): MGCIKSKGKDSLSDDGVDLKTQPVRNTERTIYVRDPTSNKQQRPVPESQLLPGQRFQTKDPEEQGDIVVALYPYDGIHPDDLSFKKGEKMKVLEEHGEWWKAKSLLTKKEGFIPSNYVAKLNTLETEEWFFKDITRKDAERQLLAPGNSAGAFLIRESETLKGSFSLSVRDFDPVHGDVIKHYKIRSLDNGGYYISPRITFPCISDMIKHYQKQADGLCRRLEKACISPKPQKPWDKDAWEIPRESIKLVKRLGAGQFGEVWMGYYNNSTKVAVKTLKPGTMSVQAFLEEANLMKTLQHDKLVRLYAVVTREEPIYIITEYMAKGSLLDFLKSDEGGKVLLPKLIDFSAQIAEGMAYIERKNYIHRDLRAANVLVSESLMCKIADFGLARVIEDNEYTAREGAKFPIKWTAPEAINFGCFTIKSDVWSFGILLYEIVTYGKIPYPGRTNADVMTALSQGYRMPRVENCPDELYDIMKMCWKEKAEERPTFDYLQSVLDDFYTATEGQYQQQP

For orientation: IC50 means the concentration that inhibits the measured activity by half. In turn, `Cc1cccc(C)c1-c1cc(C)c2nc(Nc3cccc(S(=O)(=O)N4CCNCC4)c3)nnc2c1` registered an IC50 in assay [1] of 480 nM. Same read-out and setting: for `Cc1cc(-c2c(Cl)cccc2Cl)cc2nnc(N)nc12` the value was 3600 nM. Still for that read-out and setting: for `Cc1cc(C)c(-c2cc(C)c3nc(Nc4ccccc4)nnc3c2)c(C)c1` the value was more than 50000 nM; for `Cc1cccc(C)c1-c1cc(C)c2nc(Nc3cccc4cccnc34)nnc2c1`, more than 50000 nM; for `Cc1cccc(C)c1-c1cc(C)c2nc(N)nnc2c1`, 7400 nM. The compound `Cc1cc(-c2cc(O)ccc2Cl)cc2nnc(N)nc12` gave an IC50 in assay [1] of 1500 nM. The same measure, in the same setting: the same measure for `CCOC1CN(C)CCN1c1cccc(Nc2nnc3cc(-c4c(C)cccc4C)cc(C)c3n2)c1` (stereo not given): 41 nM. Turning to `Nc1nnc2cc(-c3ccccc3)ccc2n1`, the IC50 in assay [1] was more than 50000 nM.

`Cc1cccc(Nc2nnc3cc(-c4c(C)cccc4C)cc(C)c3n2)c1C`: the IC50 in assay [1] was more than 50000 nM. The same measure, in the same setting: the same measure for `CCN(CC)CCOc1ccc(Nc2nnc3cc(-c4c(C)cccc4C)cc(C)c3n2)cc1`: 10 nM. Same read-out and setting: the same measure for `Cc1cccc(C)c1-c1cc(C)c2nc(Nc3ccccn3)nnc2c1`: more than 50000 nM; for `CCCCc1ccc(Nc2nnc3cc(-c4c(C)cccc4C)cc(C)c3n2)cc1`: more than 50000 nM; for `Cc1cccc(C)c1-c1cc(C)c2nc(Nc3ccncc3)nnc2c1`: 40 nM. In the case of `CC(=O)Nc1nnc2cc(-c3c(C)cccc3C)cc(C)c2n1`, in assay [1], the IC50 is more than 50000 nM. As for `Cc1cccc(C)c1-c1ccc2nc(N)nnc2c1`, in [1], half-maximal inhibition (IC50) was put at 2200 nM. As to `Cc1cccc(C)c1-c1cc(C)c2nc(Nc3ccccc3)nnc2c1`, in assay [1], the IC50 amounted to 410 nM. On the same count and under the same terms, for `Cc1ccc(C)c(Nc2nnc3cc(-c4c(C)cccc4C)cc(C)c3n2)c1` the value was more than 50000 nM; for `CCCOC1CN(C)CCN1c1cccc(Nc2nnc3cc(-c4c(C)cccc4C)cc(C)c3n2)c1` (stereo not given), 40 nM. For `Cc1cc(-c2ccccc2Cl)cc2nnc(N)nc12`, in assay [1], the IC50 is more than 50000 nM. Still for that read-out and setting: for `COc1ccccc1Nc1nnc2cc(-c3c(C)cccc3C)cc(C)c2n1` the value was more than 50000 nM; for `Nc1nnc2cc(-c3ccc4c(c3)OCO4)ccc2n1`, 12000 nM; for `Nc1nnc2cc(-c3ccc4ccccc4c3)ccc2n1`, 5200 nM. On the same count and under the same terms, for `CCOC1CN(c2ccc(Nc3nnc4cc(-c5c(C)cccc5C)cc(C)c4n3)cc2)CCO1` (stereo not given) the value was 32 nM.

Regarding `Cc1cccc(C)c1-c1cc(C)c2nc(Nc3ccc(OCCN4CCCC4)cc3)nnc2c1`, the IC50 turned out to be 21 nM in assay [2]; 23 nM in assay [3]; 1320 nM in assay [4]; 678 nM against Angiopoietin-1 receptor; 555 nM in assay [5]; 69 nM in assay [6]. Also, the IC50 turned out to be 20 nM in assay [7]; 5990 nM in assay [8]; 68 nM in assay [9]; 659 nM in assay [10]; 2710 nM in assay [11]. Regarding `Cc1ccc(Nc2nnc3cc(-c4c(C)cccc4C)cc(C)c3n2)c(C)c1`, the 50% inhibitory concentration (IC50) in assay [1] was more than 50000 nM.

For the origin of these results see ChEMBL document CHEMBL1139689, “Discovery and preliminary structure-activity relationship studies of novel benzotriazine based compounds as Src inhibitors” (Bioorg Med Chem Lett, 2006).
